Measurements published in patent US7902373B2 (Pfizer Inc, priority 2006, dated 2011).

Target: human recombinant H-PGDS (Homo sapiens, UniProt O60760)
Assay: Fluorescence intensity h-PGDS TBA enzyme assay
Format: biochemical
Settings: Examples up to 622 (and 3a, 3b)

human recombinant H-PGDS, sequence (O60760 whole entry): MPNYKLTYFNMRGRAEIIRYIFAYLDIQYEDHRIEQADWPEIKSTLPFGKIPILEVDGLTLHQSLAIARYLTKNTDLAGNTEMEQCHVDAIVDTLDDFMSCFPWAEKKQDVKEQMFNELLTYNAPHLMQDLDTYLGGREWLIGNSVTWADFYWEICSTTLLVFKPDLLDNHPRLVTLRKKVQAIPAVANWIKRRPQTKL

Row | Compound | IC50 [nM]
1 | CC(C)(C)C(=O)N1CCC(NC(=O)c2cnc(-c3cccc(F)c3)c(Cl)c2)CC1 [Example 622, 5-Chloro-6-(3-fluorophenyl)-N-(1-pivaloylpiperidin-4-yl)nicotinamide] | 3.48
2 | CC(=O)n1cc(CN2CCC(NC(=O)c3ccc(-c4cccc(F)c4)nc3)CC2)c2ccccc21 [Example 243, N-{1-[(1-Acetyl-1H-indol-3-yl)methyl]piperidin-4-yl}-6-(3-fluorophenyl)nicotinamide] | 1.03
3 | CC(C)(C)CN1CCC(NC(=O)c2ccc(-c3cccc(F)c3)nc2)CC1 [Example 251, N-[1-(2,2-Dimethylpropyl)piperidin-4-yl]-6-(3-fluorophenyl)nicotinamide] | 0.623
4 | CC(C)(C)OC(=O)N1[C@@H]2CC[C@H]1CC(NC(=O)c1ccc(-c3cccc(F)c3)nc1)C2 (stereo partly drawn) [Example 522, tert-Butyl (1R,5S)-3-({[6-(3-fluorophenyl)pyridin-3-yl]carbonyl}amino)-8-azabicyclo[3.2.1]octane-8-carboxylate] | 6.54
5 | O=C(NC1CCN(Cc2ccc(=O)[nH]n2)CC1)c1ccc(-c2cccc(F)c2)nc1 [Example 469, 6-(3-Fluorophenyl)-N-{1-[(6-oxo-1,6-dihydropyridazin-3-yl)methyl]piperidin-4-yl}nicotinamide] | 0.855
6 | O=C(NC1CCN(Cc2ccc3c(c2)OCCCO3)CC1)c1ccc(-c2cccc(F)c2)nc1 [Example 200, N-[1-(3,4-Dihydro-2H-15-benzodioxepin-7-ylmethyl)piperidin-4-yl]-6-(3-fluorophenyl)nicotinamide] | 1.61
7 | O=C(NC1CCN(CC(F)(F)F)CC1)c1ccc(-c2cc(F)ccc2F)nc1 [Example 583, 6-(2,5-Difluorophenyl)-N-[1-(2,2,2-trifluoroethyl)piperidin-4-yl]nicotinamide] | 1.05
8 | O=C(NC1CCN(Cc2ccccc2)CC1)c1ccc(-c2cccc(F)c2)nc1 [Example 29, N-(1-Benzylpiperidin-4-yl)-6-(3-fluorophenyl)nicotinamide] | 0.946
9 | CCC(COC)n1cnc2c(N3CCC(NC(=O)c4ccc(-c5cccc(F)c5)nc4)CC3)ncnc21 (stereo not drawn) [Example 110, 6-(3-Fluorophenyl)-N-(1-{9-[1-(methoxymethyl)propyl]-9H-purin-6-yl}piperidin-4-yl)nicotinamide] | 1.61
10 | Cc1ccc(CN2CCC(NC(=O)c3ccc(-c4cccc(F)c4)nc3)CC2)cc1F [Example 202, N-[1-(3-Fluoro-4-methylbenzyl)piperidin-4-yl]-6-(3-fluorophenyl)nicotinamide] | 1.17
11 | CC(C)(C)OC(=O)N1C[C@@H](O)[C@H](NC(=O)c2ccc(-c3cccc(F)c3)nc2)C1 (relative stereo) [Example 610, Trans-tert-Butyl 3-({[6-(3-fluorophenyl)pyridin-3-yl]carbonyl}amino)-4-hydroxypyrrolidine-1-carboxylate] | 6.92
12 | COC(=O)Cn1cc(CN2CCC(NC(=O)c3ccc(-c4cccc(F)c4)nc3)CC2)c2ccccc21 [Example 339, Methyl (3-{[4-({[6-(3-fluorophenyl)pyridin-3-yl]carbonyl}amino)piperidin-1-yl]methyl}-1H-indol-1-yl)acetate] | 1.17
13 | O=C(NC1CCN(c2ccc(C(=O)N3CCOCC3)cn2)CC1)c1ccc(-c2cccc(F)c2)nc1 [Example 50, 6-(3-Fluorophenyl)-N-{1-[5-(morpholin-4-ylcarbonyl)pyridin-2-yl]piperidin-4-yl}nicotinamide] | 0.681
14 | O=C(NC1CCN(c2ncc3cccnc3n2)CC1)c1ccc(-c2cccc(F)c2)nc1 [Example 171, 6-(3-Fluorophenyl)-N-(1-pyrido[2,3-d]pyrimidin-2-ylpiperidin-4-yl)nicotinamide] | 1.41
15 | Cn1ccc(-c2ccc(CN3CCC(NC(=O)c4ccc(-c5cccc(F)c5)nc4)CC3)cc2)n1 [Example 473, 6-(3-Fluorophenyl)-N-{1-[4-(1-methyl-1H-pyrazol-3-yl)benzyl]piperidin-4-yl}nicotinamide] | 2.36
